For nine compounds, EC50 results are on record in US7989471B2, “Macrocyclic inhibitors of hepatitis C virus” (Tibotec Pharmaceuticals Ltd., priority 2005, dated 2011).

The EC50 is the concentration giving half of the maximal effect.

The assay concerns HCV replicons (NS3-NS5B regions of HCV type Ib) in Huh-7 luc/neo cells. In words: HCV replicon assay (Huh-Luc luciferase reporter). The class given is cell-based. Conditions: Hepatitis C virus, Huh-7, 72 h; Huh-Luc replicon cells, three days incubation, luciferase activity; read-out: EC50. The protocol: The in vitro antiviral activity against HCV of the compounds of formula (I) was tested in a cellular HCV replicon system based on Lohmann et al. (1999) Science 285:110-113, with the further modifications described by Krieger et al. (2001) Journal of Virology 75: 4614-4624, which is further exemplified in the examples section. This model, while not a complete infection model for HCV, is widely accepted as the most robust and efficient model of autonomous HCV RNA replication currently available. […] It will be appreciated that it is important to distinguish between compounds that specifically interfere with HCV functions from those that exert cytotoxic or cytostatic effects in the HCV replicon model, and as a consequence cause a decrease in HCV RNA or linked reporter enzyme concentration. Assays are known in the field for the evaluation of cellular cytotoxicity based for example on the activity of mitochondrial enzymes using fluorogenic redox dyes such as resazurin. Furthermore, cellular counter screens exist for the evaluation of non-selective inhibition of linked reporter gene activity, such as firefly luciferase. Appropriate cell types can be equipped by stable transfection with a luciferase reporter gene whose expression is dependent on a constitutively active gene promoter, and such cells can be used as a counter-screen to eliminate non-selective inhibitors.
The compounds of formula (I) were examined for activity in the inhibition of HCV RNA replication in a cellular assay. […] The cellular assay was based on a bicistronic expression construct, as described by Lohmann et al. (1999) Science vol. 285 pp. 110-113 with modifications described by Krieger et al. (2001) Journal of Virology 75: 4614-4624, in a multi-target screening strategy. In essence, the method was as follows.
The assay utilized the stably transfected cell line Huh-7 luc/neo (hereafter referred to as Huh-Luc). This cell line harbors an RNA encoding a bicistronic expression construct comprising the wild type NS3-NS5B regions of HCV type Ib translated from an Internal Ribosome Entry Site (IRES) from encephalomyocarditis virus (EMCV), preceded by a reporter portion (FfL-luciferase), and a selectable marker portion (neo^R, neomycine phosphotransferase). The construct is bordered by 5′ and 3′ NTRs (non-translated regions) from HCV type Ib. Continued culture of the replicon cells in the presence of G418 (neo^R) is dependent on the replication of the HCV RNA. The stably transfected replicon cells that express HCV RNA, which replicates autonomously and to high levels, encoding inter alia luciferase, are used for screening the antiviral compounds.
The replicon cells were plated in 384 well plates in the presence of the test and control compounds which were added in various concentrations. Following an incubation of three days, HCV replication was measured by assaying luciferase activity (using standard luciferase assay substrates and reagents and a Perkin Elmer ViewLux™ ultraHTS microplate imager). Replicon cells in the control cultures have high luciferase expression in the absence of any inhibitor. The inhibitory activity of the compound on luciferase activity was monitored on the Huh-Luc cells, enabling a dose-response curve for each test compound.
Consider `COc1ccc2c(O[C@@H]3C[C@H]4C(=O)N[C@]5(C(=O)NS(=O)(=O)C6CC6)C[C@H]5CCCCCCCC(=O)N4C3)cc(-c3nc(C(C)C)cs3)nc2c1` (stereo in doubt) [Compound 64, N-[17-[2-(4-isopropylthiazol-2-yl)-7-methoxyquinolin-4-yloxy]-2,14-dioxo-3,15-diazatricyclo[13.3.0.0^4,6]octadecane-4-carbonyl]-(cyclopropyl)sulfonamide], for which the EC50 is 67 nM. Turning to `COc1ccc2c(O[C@@H]3C[C@H]4C(=O)N[C@]5(C(=O)O)C[C@H]5/C=C\CCCCCCC(=O)N4C3)cc(-c3nc(C(C)C)cs3)nc2c1` [Compound 10, 18-[2-[4-(isopropyl)thiazol-2-yl]-7-methoxyquinolin-4-yloxy]-2,15-dioxo-3,16-diazatricyclo[14.3.0.0^4,6]nonadec-7-ene-4-carboxylic acid], the 50% effective concentration (EC50) worked out at 5040 nM. For `COc1ccc2c(O[C@@H]3C[C@H]4C(=O)N[C@]5(C(=O)O)C[C@H]5/C=C\CCCCCCC(=O)N4C3)cc(-c3csc(NC(C)C)n3)nc2c1` [Compound 12, 18-[2-[2-(isopropylamino)thiazol-4-yl]-7-methoxyquinolin-4-yloxy]-2,15-dioxo-3,16-diazatricyclo[14.3.0.0^4,6]nonadec-7-ene-4-carboxylic acid], the EC50 came out at 1980 nM.

Take `COc1ccc2c(O[C@@H]3C[C@H]4C(=O)N[C@]5(C(=O)NS(=O)(=O)C6CC6)C[C@H]5/C=C\CCCCCCC(=O)N4C3)cc(-c3csc(NC(C)C)n3)nc2c1` [Compound 13, N-[[18-[2-[2-(isopropylamino)thiazol-4-yl]-7-methoxyquinolin-4-yloxy]-2,15-dioxo-3,16-diazatricyclo[14.3.0.0^4,6]nonadec-7-en-4-yl]carbonyl](cyclopropyl)sulfonamide]: the EC50 was 20 nM.

On to `COc1ccc2c(O[C@@H]3C[C@H]4C(=O)N[C@]5(C(=O)NS(=O)(=O)C6CC6)C[C@H]5/C=C\CCCCCCC(=O)N4C3)cc(-c3nccs3)nc2c1C` [Compound 26, N-[18-[2-(thiazol-2-yl)-7-methoxy-8-methylquinolin-4-yloxy]-2,15-dioxo-3,16-diazatricyclo[14.3.0.0^4,6]nonadec-7-ene-4-carbonyl]-(cyclopropyl)sulfonamide], for which the EC50 was 4 nM. In the case of `COc1ccc2c(O[C@@H]3C[C@H]4C(=O)N[C@]5(C(=O)O)C[C@H]5/C=C\CCCCCCC(=O)N4C3)cc(-c3nc(C(C)C)cs3)nc2c1C` [Compound 29, 18-[2-(4-isopropylthiazol-2-yl)-7-methoxy-8-methylquinolin-4-yloxy]-2,15-dioxo-3,16-diazatricyclo[14.3.0.0^4,6]nonadec-7-ene-4-carboxylic acid], the EC50 is 1960 nM.

`COc1ccc2c(O[C@@H]3C[C@H]4C(=O)N[C@]5(C(=O)NS(=O)(=O)C6CC6)C[C@H]5/C=C\CCCCCCC(=O)N4C3)cc(-c3nc(C(C)C)cs3)nc2c1C` [Compound 30, N-[18-[2-(4-isopropylthiazol-2-yl)-7-methoxy-8-methylquinolin-4-yloxy]-2,15-dioxo-3,16-diazatricyclo[14.3.0.0^4,6]nonadec-7-ene-4-carbonyl](cyclopropyl)sulfonamide]: the 50% effective concentration (EC50) was found to be 6 nM. Turning to `COc1ccc2c(O[C@@H]3C[C@H]4C(=O)N[C@]5(C(=O)O)C[C@H]5/C=C\CCCCCCC(=O)N4C3)cc(-c3nccs3)nc2c1` [Compound 31, 18-[7-methoxy-2-(thiazol-2-yl)quinolin-4-yloxy]-2,15-dioxo-3,16-diazatricyclo[14.3.0.0^4,6]nonadec-7-ene-4-carboxylic acid], the EC50 was determined as 4940 nM.

In the case of `COc1ccc2c(O[C@@H]3C[C@H]4C(=O)N[C@]5(C(=O)NS(=O)(=O)C6CC6)C[C@H]5/C=C\CCCCCCC(=O)N4C3)cc(-c3nccs3)nc2c1` [Compound 32, N-[18-[7-methoxy-2-(thiazol-2-yl)quinolin-4-yloxy]-2,15-dioxo-3,16-diazatricyclo[14.3.0.0^4,6]nonadec-7-ene-4-carbonyl](cyclopropyl)-sulfonamide], the EC50 came out at 17 nM.
